Consider ten compounds from patent US11858956B2, “6-aza-nucleoside prodrugs as antiviral agents for treating virus infections” (Southern Research Institute, priority 2020, dated 2024).

Holding throughout (type): cell-based
Data set [1] can be described thus: Cytotoxicity (CC50) in HEK293 cells. Conditions: human, WNV. The procedure:
(§1) As used herein, “CC50” is intended to refer to the concentration of a substance (e.g., a compound or a drug) that is required for 50% reduction of cell viability. In one aspect, an CC50 can refer to the concentration of a substance that is required for 50% reduction (i.e., cytotoxicity) in vivo, as further defined elsewhere herein.
The antiviral activity against Alpharviruses evaluated in HEK293 cells (4 hours pre-incubation with compound before infected with virus) is shown in Table 2 below. VTR=Virus titer reduction in log at 10 μM concentration. NT: not tested, ND: not determined

For the next data set, the system named is ZIKA. Briefly: Antiviral activity against ZIKA in HEK 293 cells. Conditions: Zika virus; for EC90: HEK293, read-out: ZIKA (HEK 293 cells) EC90; for log reduction at 10 µM: HEK293, read-out: ZIKA (HEK 293 cells) VTR (virus titer reduction).
Another data set deals with CHIKV. Briefly: Antiviral activity against CHIKV in NHDF cells. Conditions: Chikungunya virus; for EC90: read-out: CHIKV (NHDF cells) EC90; for log reduction at 10 µM: read-out: CHIKV (NHDF cells) VTR (virus titer reduction).
Another data set concerns DENV. Briefly: Antiviral activity against DENV in HEK293 cells. Conditions: Dengue virus; for EC90: HEK293, read-out: DENV (HEK293 cells) EC90; for log reduction at 10 µM: HEK293, read-out: DENV (HEK293 cells) VTR (virus titer reduction).
A short description of data set [2]: Cytotoxicity (CC50) in MDCK cells. Conditions: dog, H1N1. The protocol: as §1
(§2) The antiviral activity against Influenza viruses (H1N1 and H3N2 strains) evaluated in MDCK cells (4-6 hours pre-incubation with compound) shown in Table 5 below. VTR=Virus titer reduction in log at 20 μM concentration. NT: not tested, ND: not determined.

The test system of the next data set is H3N2 strain. Briefly: Antiviral activity against Influenza H3N2 strain in MDCK cells. Conditions: Influenza A virus; for EC90: 4-6 hours pre-incubation with compound; for log reduction at 20 µM: at 20 μM concentration, 4-6 hours pre-incubation, read-out: H3N2 strain (MDCK cells) VTR (virus titer reduction). The procedure: as §2
The subject of a further data set is H1N1 strain. Briefly: Antiviral activity against Influenza H1N1 strain in MDCK cells. The note with it: Influenza A virus; for EC90: 4-6 hours pre-incubation with compound; for log reduction at 20 µM: at 20 μM concentration, 4-6 hours pre-incubation, read-out: H1N1 strain (MDCK cells) VTR (virus titer reduction). The procedure: as §2
The subject of a further data set is WNV. Briefly: Antiviral activity against WNV in HEK293 cells. The note with it: West Nile virus; for EC90: HEK293, read-out: WNV (HEK293 cells) EC90; for log reduction at 10 µM: HEK293, read-out: WNV (HEK293 cells) VTR (virus titer reduction).
The test system of another data set is VEEV. Briefly: microbe, parasite or virus in culture. Conditions: Venezuelan equine encephalitis virus, NHDF; for EC90: read-out: VEEV (NHDF cells) EC90; for log reduction at 10 µM: read-out: VEEV (NHDF cells) VTR (virus titer reduction).
Data set [3] can be described thus: Cytotoxicity (CC50) in NHDF cells. The note with it: human, CHIKV. The procedure: as §1
VTR=Virus titer reduction in log at 10 μM concentration. NT: not tested, ND: not determined.

For `CCCC(=O)Nc1cnn([C@@H]2O[C@H](CO)[C@@H](O)[C@H]2O)c(=O)n1` [Compound 20, N-(2-((2R,3R,4S,5R)-3,4-dihydroxy-5-(hydroxymethyl)tetrahydro-furan-2-yl)-3-oxo-2,3-dihydro-1,2,4-triazin-5-yl)butyramide], the values for the cytotoxic concentration (CC50) in data set [1] and in [2] were 22.9 µM and over 20 µM, respectively. The 90% effect concentration (EC90) (in general, the concentration needed for an effect of 90%) came out at 0.2 µM with ZIKA; 9 µM in the data set with CHIKV; 1.2 µM in the data set with DENV; 3.5 µM in the data set on H3N2 strain; 2.8 µM with H1N1 strain. The log reduction at 10 µM in the data set on ZIKA worked out at 2.8; in the data set on CHIKV, 1.5; in the data set with DENV, 3. Besides, the log reduction at 20 µM in the data set with H3N2 strain was 2.7; in the data set on H1N1 strain it was 2.9.
With `CCOP(=O)(OCC)OC[C@H]1O[C@@H](n2ncc(=O)[nH]c2=O)C(O)C1O` (stereo partly drawn) [Compound 16, (2r,3s,4r,5r)-5-(3,5-dioxo-4,5-dihydro-1,2,4-triazin-2(3H)-yl)-3,4-dihydroxytetrahydrofuran-2-yl) methyl diethyl phosphate], the values for the CC50 in data set [1] and in data set [2] were over 40 µM and over 100 µM, respectively. Also, the 90% effect concentration (EC90) in the data set with WNV was over 10 µM; with VEEV, 10.1 µM; with ZIKA it was over 10 µM; in the data set with DENV, over 30 µM; with H1N1 strain, over 100 µM. Besides, the log reduction at 10 µM in the data set with VEEV amounted to 1.05.
For the compound `O=C(Nc1cnn([C@@H]2O[C@H](CO)[C@@H](O)[C@H]2O)c(=O)n1)C1CC1` [Compound 21, N-(2-((2R,3R,4S,5R)-3,4-dihydroxy-5-(hydroxymethyl)tetrahydro-furan-2-yl)-3-oxo-2,3-dihydro-1,2,4-triazin-5-yl)cyclopropane-carboxamide], the half-maximal cytotoxic concentration (CC50) (in general, the concentration at which the toxic effect on the cells reaches its halfway point) in [1] is 18.9 µM; in [2] it was over 20 µM. Further, the 90% effect concentration (EC90) in the data set with WNV amounted to 0.4 µM; in the data set with ZIKA it was 0.2 µM; in the data set on CHIKV, 4.9 µM; with DENV, 0.34 µM; with H3N2 strain, 3.9 µM; with H1N1 strain it was 2.8 µM. Also, the log reduction at 10 µM in the data set with WNV is 4.5; with ZIKA, 4; in the data set on CHIKV, 1.7; with DENV, 3.4. In addition, the results for the log reduction at 20 µM in the data set on H3N2 strain and with H1N1 strain were 3 and 3.6, respectively.
As for `CC[C@@H](C)[C@@H](N)C(=O)OC[C@H]1O[C@@H](n2ncc(=O)[nH]c2=O)[C@H](O)[C@@H]1O` [Compound 12, ((2r,3s,4r,5r)-5-(3,5-dioxo-4,5-dihydro-1,2,4-triazin-2(3H)-yl)-3,4-dihydroxytetrahydrofuran-2-yl)methyl D-isoleucinate], the CC50 in data set [1] is 6.2 µM; in data set [3] it was over 40 µM. Also, the 90% effect concentration (EC90) was found to be 0.89 µM in the data set with CHIKV and 0.5 µM in the data set on DENV. For the same compound, the log reduction at 10 µM came out at 4.55 in the data set with CHIKV and 3.9 in the data set with DENV.
Consider `O=C(Nc1cnn([C@@H]2O[C@H](CO)[C@@H](O)[C@H]2O)c(=O)n1)C1CCC1` [Compound 22, N-(2-((2R,3R,4S,5R)-3,4-dihydroxy-5-(hydroxymethyl)-tetrahydrofuran-2-yl)-3-oxo-2,3-dihydro-1,2,4-triazin-5-yl)-cyclobutanecarboxamide], for which the half-maximal cytotoxic concentration (CC50) in data set [1] stood at 6.46 µM; in data set [2] it was 19 µM. Besides, the EC90 with ZIKA was determined as 0.4 µM; with CHIKV it was 8 µM; in the data set with DENV it was 1 µM; with H3N2 strain, 3.9 µM; with H1N1 strain, 0.68 µM. Moreover, the log reduction at 10 µM came out at 2.6 in the data set on ZIKA, 0.89 in the data set with CHIKV and 3.2 with DENV. In addition, the log reduction at 20 µM came out at 3 in the data set with H3N2 strain and 2.9 in the data set with H1N1 strain.
As for `CCC(CC)COC(=O)[C@H](C)NP(=O)(OC[C@H]1O[C@@H](n2ncc(N)nc2=O)C(O)C1O)Oc1ccccc1` (single isomer, unassigned) [Compound 17, 2-ethylbutyl ((((2r,9,4r,5r)-5-(5-amino-3-oxo-1,2,4-triazin-2(3H)-yl)-3,4-dihydroxytetrahydrofuran-2-yl)methoxy)-(phenoxy)phosphoryl)-L-alaninate], in the data set on VEEV, the EC90 was 5 µM and the log reduction at 10 µM was determined as 1. In addition, in the data set on DENV, the EC90 is over 30 µM.
As for `CCOC(=O)Nc1cnn([C@@H]2O[C@H](CO)[C@@H](O)[C@H]2O)c(=O)n1` [Compound 23, ethyl (2-((2R,3R,4S,5R)-3,4-dihydroxy-5-(hydroxy-methyl)tetrahydrofuran-2-yl)-3-oxo-2,3-dihydro-1,2,4-triazin-5-yl)carbamate], the 50% cytotoxic concentration (CC50) in data set [1] was 22.4 µM; in data set [2], over 20 µM. For the same compound, the concentration for an effect of 90% (EC90) is 0.3 µM in the data set with ZIKA; over 10 µM with CHIKV; 1.3 µM in the data set on DENV; 6.3 µM with H3N2 strain; 3.78 µM in the data set on H1N1 strain. For the same compound, the log reduction at 10 µM is 3 in the data set with ZIKA, 0 in the data set on CHIKV and 3.3 in the data set on DENV. For the same compound, the log reduction at 20 µM in the data set on H3N2 strain is 2; in the data set with H1N1 strain, 3.6.
In the case of `CCCCCCCCCCCC(=O)Nc1cnn([C@@H]2O[C@H](CO)[C@@H](O)[C@H]2O)c(=O)n1` [Compound 19, N-(2-((2r,3r,4s,5r)-3,4-dihydroxy-5-(hydroxy-methyl)tetrahydrofuran-2-yl)-3-oxo-2,3-dihydro-1,2,4-triazin-5-yl)dodecanamide], the results for the CC50 in [1] and in [2] were over 40 µM and over 20 µM, respectively. Also, the 90% effect concentration (EC90) in the data set with WNV is 0.7 µM; in the data set with ZIKA it was 1.1 µM; with DENV, 0.6 µM; in the data set with H3N2 strain, 12.1 µM; in the data set with H1N1 strain, 3.16 µM. For the same compound, the values for the log reduction at 10 µM in the data set on WNV, in the data set on ZIKA and with DENV were 4, 2.6 and 2.1, respectively. Besides, the log reduction at 20 µM with H3N2 strain and in the data set on H1N1 strain was 3.3 in each case.
In the case of `CC(C)C(=O)OC[C@H]1O[C@@H](n2ncc(=O)[nH]c2=O)[C@H](O)[C@@H]1O` [Compound 14, ((2r,3s,4r,5r)-5-(3,5-dioxo-4,5-dihydro-1,2,4-triazin-2(3H)-yl)-3,4-dihydroxytetrahydrofuran-2-yl)-methyl isobutyrate], the results for the CC50 in [1] and in [2] were over 40 µM and over 20 µM, respectively. The EC90 in the data set on DENV was 5 µM; in the data set on H3N2 strain, 16.4 µM; in the data set with H1N1 strain, 3.6 µM. For the same compound, in the data set with DENV, the log reduction at 10 µM worked out at 2.1. Also, the log reduction at 20 µM in the data set with H3N2 strain and in the data set with H1N1 strain was 3.3 throughout.
Take `CCCCCOC(=O)Nc1cnn([C@@H]2O[C@H](CO)[C@@H](O)[C@H]2O)c(=O)n1` [Compound 24, pentyl (2-((2R,3R,4S,5R)-3,4-dihydroxy-5-(hydroxy-methyl)tetrahydrofuran-2-yl)-3-oxo-2,3-dihydro-1,2,4-triazin-5-yl)carbamate]: half-maximal cytotoxicity in data set [1] (CC50) was put at 20.4 µM. Also, the concentration for an effect of 90% (EC90) with ZIKA is 0.3 µM; in the data set on CHIKV it was over 10 µM; in the data set on DENV, 1.2 µM. Besides, the log reduction at 10 µM turned out to be 3.1 in the data set with ZIKA, 0 in the data set with CHIKV and 3.3 in the data set on DENV. The log reduction at 20 µM in the data set on H3N2 strain stood at 1.6; with H1N1 strain, 2.9.
